Laboratory results from article PMC10457778, “Effects of In Vitro Digestion of Polyphenols from Coffee on Binding Parameters to Human Topoisomerase II α” (Molecules, 2023).
Marks after values point to notes of the source that are not given here.

What was measured:
[1] = biological target: T1, Topoisomerase II α human (Homo sapiens, UniProt P11388); test: Isothermal titration calorimetry (ITC) of interactions with TOPIIα; assay type: binding; settings: single compounds; for ∆G (kJ/mol) ITC / ∆H (kJ/mol) ITC: 36.6 °C, mean ± SD, n = 6
T1 construct: purchased Sigma Aldrich (St. Louis, MO, USA)
T1 sequence (P11388 whole entry): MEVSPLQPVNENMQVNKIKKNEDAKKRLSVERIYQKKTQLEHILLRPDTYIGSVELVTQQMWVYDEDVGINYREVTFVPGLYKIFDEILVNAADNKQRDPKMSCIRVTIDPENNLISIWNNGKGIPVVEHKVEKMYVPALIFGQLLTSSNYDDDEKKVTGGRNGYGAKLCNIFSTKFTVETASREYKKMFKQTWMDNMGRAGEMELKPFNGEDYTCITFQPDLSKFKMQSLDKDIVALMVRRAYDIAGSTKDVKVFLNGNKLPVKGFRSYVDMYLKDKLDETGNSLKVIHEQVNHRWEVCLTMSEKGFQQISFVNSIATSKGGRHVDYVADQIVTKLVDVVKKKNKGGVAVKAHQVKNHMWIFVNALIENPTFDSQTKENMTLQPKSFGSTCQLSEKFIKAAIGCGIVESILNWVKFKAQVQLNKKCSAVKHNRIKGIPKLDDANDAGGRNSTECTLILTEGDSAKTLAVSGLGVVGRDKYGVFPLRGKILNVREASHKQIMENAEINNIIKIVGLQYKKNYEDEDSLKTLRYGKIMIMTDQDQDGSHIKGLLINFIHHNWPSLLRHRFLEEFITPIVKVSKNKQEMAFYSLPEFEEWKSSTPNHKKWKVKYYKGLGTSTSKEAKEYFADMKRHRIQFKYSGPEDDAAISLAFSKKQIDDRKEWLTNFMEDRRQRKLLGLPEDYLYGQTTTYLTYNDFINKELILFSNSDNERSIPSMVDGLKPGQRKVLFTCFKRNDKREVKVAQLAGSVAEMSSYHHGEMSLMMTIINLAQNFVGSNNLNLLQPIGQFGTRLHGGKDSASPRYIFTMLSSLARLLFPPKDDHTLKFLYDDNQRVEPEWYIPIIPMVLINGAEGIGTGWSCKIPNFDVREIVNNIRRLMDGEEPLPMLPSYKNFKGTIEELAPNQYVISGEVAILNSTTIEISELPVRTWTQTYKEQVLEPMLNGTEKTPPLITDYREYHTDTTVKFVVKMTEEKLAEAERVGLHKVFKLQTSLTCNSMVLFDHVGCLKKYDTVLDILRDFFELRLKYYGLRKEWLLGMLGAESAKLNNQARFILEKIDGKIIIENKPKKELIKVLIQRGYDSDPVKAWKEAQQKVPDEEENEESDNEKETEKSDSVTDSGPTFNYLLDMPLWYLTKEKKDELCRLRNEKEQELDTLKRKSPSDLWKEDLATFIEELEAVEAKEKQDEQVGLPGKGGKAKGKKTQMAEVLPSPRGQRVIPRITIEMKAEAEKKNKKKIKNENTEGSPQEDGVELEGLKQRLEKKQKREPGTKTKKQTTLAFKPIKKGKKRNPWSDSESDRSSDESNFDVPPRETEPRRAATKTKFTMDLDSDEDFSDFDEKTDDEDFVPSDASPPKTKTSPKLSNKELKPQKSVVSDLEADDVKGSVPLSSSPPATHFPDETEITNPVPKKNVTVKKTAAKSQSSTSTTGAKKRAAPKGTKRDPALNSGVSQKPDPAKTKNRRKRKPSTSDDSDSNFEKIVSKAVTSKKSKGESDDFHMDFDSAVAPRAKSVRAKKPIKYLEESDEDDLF
Procedure: The parameters of interactions of coffee and its components with TOPIIα were carried out using the isothermal titration calorimetry (ITC) (MicroCal PEAQ-ITC 200, Malvern, Worcestershire, UK). Analyses were carried out according to Grzelczyk et al., with some modifications. A calorimeter cell with a capacity of 0.2 mL was filled with 0.1 μmol/L of TOPIIα solution in ultrapure water (deionized, LC-MS grade); the syringe was subsequently filled with titrants as degassed aqueous solutions of chlorogenic acids (CHAs); green, light-, or dark-roasted coffee extracts; coffee fraction; before and after in vitro digestion, at concentrations of 10 mmol/L (coffee extracts at concentrations of 0.1 mmol/L calculated based on 5-caffeoylquinic acid). The measurements were carried out at 36.6 °C with continuous stirring at 307 rpm (10 injections, 25 min). During the ITC analysis, an exothermic or endothermic reaction was recorded, when the binding of compounds to the enzyme occurred. The heat was generated as a consequence of ligand-to-protein binding, which is observed as an energy peak (raw data of heat in […]). The titration of a ligand into water was performed to subtract the energetic effects of dilution. The enthalpy changes (∆H), Gibbs free energy changes (∆G), and entropy changes (∆S) were calculated from the ITC titration nonlinear least squares saturation curve fitting carried out using MicroCal PEAQ-ITC200 software 1.30 [40].

[2] = system: human topoisomerase IIα; set-up: method as in PMID 18461976; settings: 100 μM solutions; cited from earlier work
[3] = listed as 4,5-di-O-caffeoylquinic acid

Row | SMILES | ∆G (kJ/mol) ITC [1] | ∆H (kJ/mol) ITC [1] | mode of action on human topoisomerase IIα [2] | other results
1 | O=Cc1ccc(CO)o1 [5-(Hydroxymethyl)furfural] | – | – | – | interactions with TOPIIα in ITC measurements [1]: did not show significant interactions
2 | C=CC(N)=O [Acrylamide] | – | – | – | interactions with TOPIIα in ITC measurements [1]: did not show significant interactions
3 | Cn1c(=O)c2c(ncn2C)n(C)c1=O [Caffeine, reference compound] | −34.50 ± 1.15 ^d kJ/mol | −6.28 ± 0.45 ^e kJ/mol | – | –
4 | O=c1c(O)c(-c2ccc(O)cc2)oc2cc(O)cc(O)c12 [kaempferol] | – | – | redox-dependent poisons rather than the enzyme inhibitors | –
5 | O=c1c(O)c(-c2cc(O)c(O)c(O)c2)oc2cc(O)cc(O)c12 [myricetin] | – | – | redox-dependent poisons rather than the enzyme inhibitors | –
6 | O=c1c(O)c(-c2ccc(O)c(O)c2)oc2cc(O)cc(O)c12 [quercetin] | – | – | redox-dependent poisons rather than the enzyme inhibitors | –

The next lines start with results.

Row | ∆G (kJ/mol) ITC [1] | ∆H (kJ/mol) ITC [1] | SMILES | mode of action on human topoisomerase IIα [2] | other results
7 | −33.87 ± 1.39 ^a kJ/mol | −8.00 ± 0.45 ^c,a kJ/mol | O=C(C=Cc1ccc(O)c(O)c1)OC1CC(O)(C(=O)O)CC(OC(=O)C=Cc2ccc(O)c(O)c2)C1O (centres unmarked) [3,5-Di-O-caffeoylquinic acid] | – | –
8 | −37.64 ± 1.35 ^c kJ/mol | −1.78 ± 0.15 ^d kJ/mol | O=C(C=Cc1ccc(O)c(O)c1)OC1CC(O)(C(=O)O)CC(O)C1OC(=O)C=Cc1ccc(O)c(O)c1 (centres unmarked) [4,5-Di-O-caffeoylquinic acid] | – | ∆G (kJ/mol) ITC [1, 3]: -37.64 kJ/mol; ∆H (kJ/mol) ITC [1, 3]: -1.78 kJ/mol
9 | −33.54 ± 1.09 ^a kJ/mol | −9.04 ± 0.25 ^a kJ/mol | O=C(O)/C=C/c1ccc(O)c(O)c1 [Caffeic acid] | – | –
10 | −34.42 ± 1.33 ^d kJ/mol | −6.49 ± 0.29 ^e kJ/mol | O=C(O)CCc1ccc(O)c(O)c1 [Dihydrocaffeic acid] | – | –
